Patent publication US20230349922A1, “H2 Blockers Targeting Liver Macrophages for the Prevention and Treatment of Liver Disease and Cancer” (Université de Strasbourg, priority 2020, published 2023)

Assays:
[1] = system: prognostic liver signature (PLS); assay: cPLS model: reversal of the prognostic liver signature in HCV-infected Huh7.5.1dif cells; format: cell-based, human; conditions: Huh7.5.1dif cells infected with HCV Jc1 for 7 days, treated 3 additional days; GSEA
[2] = Farup, Scand. J. Gastroenterol., 1988; cited from earlier work
HRH2/cAMP/PKA axis = assay: PLS assessment upon perturbation of the HRH2/cAMP/PKA axis in Huh7.5.1dif cells; format: cell-based, human; conditions: 48 hours, histamine 10 μM, 8-CPT cAMP 100 μM, H89 10 μM
Description: Histamine, 8-CPT, cAMP and H89 Treatment. Huh7.5.1^dif cells were cultured in DMEM containing 1% FBS and 1% DMSO and incubated with histamine (10 μM) or histamine+nizatidine (10 μM) for 48 hours. Fresh medium containing histamine was replenished every 12 hours. For 8-CPT cAMP and H89, Huh7.5.1^dif cells cultured in DMEM 1% DMSO and 1% FBS were incubated with 8-CPT cAMP (100 μM), H89 (1 μM) or DMSO as a control for 48 hours. Fresh medium containing 8-CPT cAMP was replenished every 12 hours.
Transcriptomic Analysis and PLS Calculation. Gene expression profiling and the 32 gene PLS 32 profiling were performed using 250-500 ng total RNA by using either nCounter Digital Analyzer system (NanoString) or the HumanHT-12 beadarray (Illumina) for the time-course experiments. PLS gene expression was normalized according to 6 housekeeping gene expression using GenePattern genomic analysis toolkits (Hoshida, PLOS ONE, 2010, 5: e15543; Peck et al., Genome Biol., 2006, 7: R61; Reich et al., Nature Genet., 2006, 38: 500-501). Induction or suppression of PLS risk signature was determined as previously reported by using Gene Set Enrichment Analysis (GSEA), implemented in GenePattern genomic analysis toolkits (Hoshida, PLOS ONE, 2010, 5: e15543; Peck et al., Genome Biol., 2006, 7: R61; Reich et al., Nature Genet., 2006, 38: 500-501). PLS was always determined by using CTRL cells as references. Results are presented as simplified heatmaps showing the classification of PLS global status as poor or good prognosis and the significance of induction/suppression of PLS genes (log 10 of false discovery rate (FDR) values). For each experiment, heatmaps show: in the upper part: the classification of PLS global status as poor (orange) or good (green) prognosis, and in the bottom part: the significance of induction (red) or suppression (blue) of PLS poor- or good-prognosis genes. Global status corresponds to the difference between low risk- and high risk-gene expression. The statistic tests, normalized enrichment score (NES) and FDR values are provided for each PLS experiment (poor- and good-prognosis genes variation and global status) in the Source Data file.

[3] = system: M1-polarized THP1-derived macrophages; assay: RNA-Seq / GSEA of M1-polarized THP1-derived macrophages treated with Oxmetidine; format: cell-based, human
Description: M1 Macrophage Polarization and HRH2 Blocker Treatment. THP1 cells were cultured in RPMI 1640 Medium with GlutaMAX™-I supplement and HEPES and supplemented with 10% FBS and gentamycin (0.05 mg/mL). M1 macrophage polarization from THP-1 was performed as previously described (Yeung et al., J. Hepatol., 2015, 62: 607-616). To generate MO THP-1 macrophages, THP1 cells were treated with PMA 320 nM for 24 hours. To generate M1-polarized THP-1 macrophages, THP-1 cells were treated with […] then with 100 ng/ml LPS and 20 ng/ml IFNγ for 18 hours. Cells then were treated with HRH2 blockers 20 μM or DMSO vehicle for 72 hours.
RNA-Seq of M1 macrophages. RNA-Seq was performed on total RNA from MO macrophages, M1-polarized macrophages, and M1-polarized macrophages treated with Oxmetidine, Nizatidine or DMSO (triplicates). RNA-Seq was performed by the Biomedical Sequencing Facility (BSF) CEMM Research Center for Molecular Medicine of the Austrian Academy of Sciences, Vienna (Austria). Briefly, RNA-Seq libraries were generated from 300 ng of total RNA using TruSeq Stranded mRNA Sample Preparation Kit (Illumina, Part Number RS-122-2101). Following purification with poly-T oligo attached magnetic beads, the mRNA was fragmented using divalent cations at 94° C. for 2 minutes. The cleaved RNA fragments were copied into first strand cDNA using reverse transcriptase and random primers. Strand specificity was achieved by replacing dTTP with dUTP during second strand cDNA synthesis using DNA Polymerase I and RNase H. Following addition of a single ‘A’ base and subsequent ligation of the adapter on double stranded cDNA fragments, the products were purified and enriched with PCR (30 seconds at 98° C.; [10 seconds at 98° C., 30 seconds at 60° C., 30 seconds at 72° C.]×12 cycles; 5 minutes at 72° C.) to create the cDNA library. Surplus PCR primers were further removed by purification using AMPure XP beads (Beckman Coulter) and the final cDNA libraries were checked for quality and quantified using 2100 Bioanalyzer (Agilent). Libraries were sequenced on the Illumina HiSeq 4000 as Single-Read 50 base reads following Illumina's instructions. Image analysis and base calling were performed using RTA v2.7.3 and bcl2fastq v2.17.1.14.

[4] = rodents; cited from earlier work
HCC = conditions: one animal model study (Furuta et al., 2008), circumstantial evidence; cited from earlier work
natural killer cell = conditions: patients with transarterial chemoembolization (Nishiguchi et al., 2003); cited from earlier work
[5] = in vivo; cited from earlier work
[6] = in vivo; cited from earlier work; remark: listed apart in the source
[7] = system: patient-derived HCC tumor spheroids; assay: Cell viability (ATP, CellTiter-Glo) of patient-derived HCC tumorspheroids; format: cell-based, human; conditions: sorafenib 10 μM, 4 days; some of the patient tumors
Description: Patient-Derived HCC Tumor Spheroids. Tumorspheroids were generated from liver tissues from HCC patients undergoing surgical resection and dissociated using the Human Tumor Dissociation Kit. Total cell populations including epithelical (i.e., cancer cells/hepatocytes) and NPCs were used to generate multicellular tumorspheroids in Corning® 96-well Black/Clear Bottom Low Flange Ultra-Low Attachment Microplates (Corning). After 48 hours, HCC-derived spheroids were treated with nizatidine 50 μM, sorafenib 10 μM or DMSO vehicle control for 4 days. Fresh medium containing DMSO or drugs was added every day. Cell viability was assessed using CellTiter-Glo® (Luminescent Cell Viability Assay), according to manufacturer's instruction.

[8] = Oxmetidine vs DMSO, 72 hours, GSEA
[9] = Oxmetidine vs DMSO, 72 hours, GSEA, in contrast to Nizatidine
[10] = single gene level, top 10 of Oxmetidine modulated genes

Compound: NC(N)=Nc1nc(CSCCC(N)=NS(N)(=O)=O)cs1 [Famotidine, 3-[[2-(diaminomethylideneamino)-1,3-thiazol-4-yl]methylsulfanyl]-N′-sulfamoyl-propanimidamide]
- reversal of the poor prognosis status of the prognostic liver signature (PLS) [1]: partial reversal of the PLS

Compound: Cc1ncc(-c2csc(N=C(N)N)n2)[nH]1 [Zaltidine, 2-[4-(2-methyl-1H-imidazol-5-yl)-1,3-thiazol-2-yl]guanidine]
- hepatotoxicity [2]: hepatotoxic

Compound: O=S(=O)(NCCNC/C=C/c1ccc(Br)cc1)c1cccc2cnccc12 [H89]
- PLS poor-prognosis status upon perturbation of the HRH2/cAMP/PKA axis (HRH2/cAMP/PKA axis): reversed the induction of the PLS poor-prognosis status

Compound: Cc1[nH]cnc1CSCCNc1ncc(Cc2ccc3c(c2)OCO3)c(=O)[nH]1 [Oxmetidine, 5-(1,3-benzodioxol-5-ylmethyl)-2-[2-[(5-methyl-1H-imidazol-4-yl)methylsulfanyl]ethylamino]-1H-pyrimidin-6-one]
- antigen presentation related-pathways [3, 8]: improves antigen presentation related-pathways
- pathway mediating inflammation (TNFα, IL6) [3, 8]: strongly suppresses pathway mediating inflammation
- IFN response [3, 9]: strong reduction in IFN response
- cell metabolism [3, 9]: improvement of cell metabolism
- expression of key genes regulating lipid metabolism (ABCG1, ABCA1, SREBF1) [3, 10]: increase in expression of key genes regulating lipid metabolism
- pro-inflammatory gene expression (CCL7, CCL2, IL6) [3, 10]: decrease in pro-inflammatory gene expression

Compound: Nc1ncnc2c1nc(Sc1ccc(Cl)cc1)n2[C@@H]1O[C@@H]2COP(=O)(O)O[C@H]2[C@H]1O [8-CPT-cAMP]
- PLS poor-prognosis status upon perturbation of the HRH2/cAMP/PKA axis (HRH2/cAMP/PKA axis): induction of the poor-prognosis status of the PLS

Compound: CC(C)/N=C/Nc1ccc(-c2c[nH]cn2)cc1 [Mifentidine, N-(4-(1H-imidazol-4-yl)phenyl)-N′-(1-methylethyl)methanimidamide]
- gastric carcinoid tumors [4]: produced gastric carcinoid tumors in rodents

Compound: CN/C(=N/CCSCc1nc[nH]c1C)NC#N [Cimetidine]
- anti-HCC effect (HCC): anti-HCC effect
- natural killer cell activity in peripheral blood (natural killer cell): improves natural killer cell activity in peripheral blood

Compound: NCCc1c[nH]cn1 [histamine]
- PLS poor-prognosis status upon perturbation of the HRH2/cAMP/PKA axis (HRH2/cAMP/PKA axis): Induction of the PLS poor-prognosis status

Compound: NC(N)=Nc1nc(CSCCN/C=N/S(=O)(=O)c2ccc(Br)cc2)cs1 [Ebrotidine, 4-bromo-N-[[[2-[[[2-[(diaminomethylene)amino]-4-thiazolyl]methyl]thio]ethyl]amino]methylene] benzenesulfonamide]
- efficacy for the treatment of gastric or duodenal ulcers or erosive reflux oesophagitis [5]: as effective as Ranitidine
- activity against ethanol-, aspirin- or stress-induced gastric mucosal damage [6]: gastroprotective activity

Compound: CNC(=O)c1cc(Oc2ccc(NC(=O)Nc3ccc(Cl)c(C(F)(F)F)c3)cc2)ccn1 [sorafenib]
- tumor spheroid response [7]: did not respond

Compound: Cn1nc(CO)nc1NCCCOc1cccc(CN2CCCCC2)c1 [Lavoltidine]
- gastric carcinoid tumors [4]: produced gastric carcinoid tumors in rodents
